# Assay results taken from patent US5547941A, “Cyclic dinucleoside diphosphorothioates, related compounds and pharmaceutical compositions” (priority 1991, dated 1996).
# Structures can show the parent of a compound that is named as a salt.
# Columns and labels:
# [1] = test system: snake venom phosphodiesterase; test: Enzymatic hydrolysis of the deprotected dinucleotide thiophosphates by snake venom phosphodiesterase (HPLC substrate disappearance); format: biochemical, Crotalus durissus; conditions: for Reduction in the area of the HPLC peak relatively to the control / Substrate change on enzymatic hydrolysis (in words): 37° C., pH 8
# Method: The two samples XIIa and XIIb can independently undergo an enzymatic degradation by action of an exonuclease like snake venom phosphodiesterase following the disappearance of starting sample by HPLC along the time. […] Accordingly the configuration RP has to be assigned to XIIa and configuration SP to XIIb.
# The relative susceptivity of the two substrates XIIa and XIIb to hydrolysis by snake venom phosphodiesterase was determined by incubating a solution (3 mM) of each substrate in Tris buffer (25 mM) containing MgCl2 (5 mM) at pH 8 with the enzyme (1 mg in 0.5 ml) (from Crotalus durissus) purchased from Boehringer and following the substrate disappearance by HPLC. In particular for each substrate a solution was prepared consisting of 700 μl of buffer, 200 μl of substrate solution plus 50 μl of enzyme solution. For each substrate a control was prepared with the same components and volumes except for the enzyme that was replaced by an equal volume of buffer. The four solutions (the two substrates and the two controls) were incubated at 37° C. taking aliquots from each solution at 0 time, 1 hour, 17 hours. Such aliquots were analyzed by HPLC (Whatman Partisphere C18, eluting with a linear gradient from 10% to 30% of methanol 0.1 M ammonium acetate) at 220 nm.
# [2] = test system: HIV; test: Anti-HIV activity on the protein level: viral core protein p24 in supernatant of HIV-infected mitogen-stimulated human lymphocytes (ELISA); format: cell-based, HIV (in peripheral human lymphocytes); conditions: for HIV p24 in supernatant: 10 μM; for inhibition at 10 µM: Human immunodeficiency virus 1, Lymphocyte
# Method: (§1) The compounds of the present invention were tested for antiviral activity on peripheral human lymphocytes isolated by density gradient centrifugation and stimulated with a mitogen.
# (§2) Infection was performed with a standardized preparation of HIV and cells, cultured in the presence of the drug for 4 days.
# Individual cultures were established to measure viral replication 2, 3 and 4 days after infection. The amount of viral core protein P 24, synthesized and released by the infected cells, was determined in the supernatant of treated and untreated cells on days 2, 3 and 4 by an Elisa.
# (§3) The antiviral effect induced by the tested compounds was calculated from the inhibition of the evaluated parameters (i.e.: P24 or RNA) as compared with infected controls.
# [3] = test system: HIV; test: Anti-HIV activity on the RNA level: viral RNA synthesized by HIV-infected human lymphocytes (nucleic acid hybridization); format: cell-based, HIV (in peripheral human lymphocytes); conditions: for HIV RNA: 10 μM; for inhibition at 10 µM: Human immunodeficiency virus 1, Lymphocyte
# Method: as §1, §2
# The total amount of viral RNA synthesized by the infected lymphocytes was determined on day 2, 3 and 4 by a nucleic acid hybridization technique. By including a standard preparation of HIV-RNA, the amount of synthesized RNA was quantified.
# as §3
# [4] = test system: peripheral human lymphocytes; test: Cytotoxicity (10 μM stated to be non cytotoxic); format: cell-based
# [5] = 72 h, Day 3, read-out: Inhibition of HIV replication on the protein level
# [6] = 96 h, Day 4, read-out: Inhibition of HIV replication on the protein level
# [7] = 72 h, Day 3, read-out: Inhibition of HIV replication on the RNA level
# [8] = 96 h, Day 4, read-out: Inhibition of HIV replication on the RNA level
SMILES,"Relative rate of enzymatic degradation ([1]; XIIa versus XIIb, snake venom phosphodiesterase)",Reduction in the area of the HPLC peak relatively to the control ([1]; after 1 hour) [%],Reduction in the area of the HPLC peak relatively to the control ([1]; after 17 hours) [%],HIV p24 in supernatant ([2]; Day 2) [ng p24/ml],"HIV p24 in supernatant ([2]; Day 3, control 2.2 ng p24/ml) [ng p24/ml]","HIV p24 in supernatant ([2]; Day 4, control 21.5 ng p24/ml) [ng p24/ml]","inhibition at 10 µM [2, 5] [%]","inhibition at 10 µM [2, 6] [%]",HIV RNA ([3]; Day 2) [pg RNA/ml],"HIV RNA ([3]; Day 3, control 226 pg RNA/ml) [pg RNA/ml]","HIV RNA ([3]; Day 4, control 612 pg RNA/ml) [pg RNA/ml]","inhibition at 10 µM [3, 7] [%]","inhibition at 10 µM [3, 8] [%]",Substrate change on enzymatic hydrolysis (in words) ([1]; after 1 hour),Substrate change on enzymatic hydrolysis (in words) ([1]; after 17 hours),Cytotoxicity [4]
"Nc1ccn([C@H]2C[C@H](O[P@](O)(=S)OC[C@H]3O[C@@H](n4ccc(N)nc4=O)C[C@@H]3O)[C@@H](CO)O2)c(=O)n1 [XIIa, 2'-deoxy-(RP)-P-thiocytidylyl-(3'→5')-2'-deoxycytidine sodium salt]",degraded much faster than the sample XIIb,50,72,–,–,–,–,–,–,–,–,–,–,–,–,–
"Nc1ccn([C@H]2C[C@@H]3O[P@](O)(=S)OC[C@H]4O[C@@H](n5ccc(N)nc5=O)C[C@@H]4O[P@](O)(=S)OC[C@H]3O2)c(=O)n1 [Compound IIa, Cyclo-2'-deoxy-(RP)-P-thiocytidylyl-(3'→5')-2'-deoxy-(RP)-P-thiocytidylyl-(3'→5'), sodium salt]",–,–,–,0.0,0.1,17.1,97,20,0,188,465,17,24,–,–,–
"Nc1ccn([C@H]2C[C@H](O[P@@](O)(=S)OC[C@H]3O[C@@H](n4ccc(N)nc4=O)C[C@@H]3O)[C@@H](CO)O2)c(=O)n1 [XIIb, 2'-deoxy-(SP)-P-thiocytidylyl-(3'→5 '-2-deoxycytidinesodium salt]",–,–,–,–,–,–,–,–,–,–,–,–,–,almost unchanged,almost unchanged,–
"Nc1ccn([C@H]2C[C@@H]3O[P@@](O)(=S)OC[C@H]4O[C@@H](n5ccc(N)nc5=O)C[C@@H]4O[P@](O)(=S)OC[C@H]3O2)c(=O)n1 [Compound IIb, Cyclo-2'-deoxy-(SP)-P-thiocytidylyl-(3'→5')-2'-deoxy-(RP)-P-thiocytidylyl-(3'→5'), sodium salt]",–,–,–,0.0,0.0,3.7,100,83,0,0,266,100,56,–,–,non cytotoxic
